How the values were obtained:
[1] = molecular target: Mu-type opioid receptor (Cavia porcellus, UniProt P97266); assay: Binding affinity towards Opioid receptor mu 1 was determined in guinea pig whole brain using [3H]CTOP radioligand
[2] = molecular target: T1, Cholecystokinin receptor type A (Cavia porcellus, UniProt Q63931); assay: Binding affinity towards Cholecystokinin type A receptor was determined in guinea pig pancreatic membranes using [125I]-BH-CCK-8 as radioligand; type: cell membranes
T1 sequence (Q63931 whole entry): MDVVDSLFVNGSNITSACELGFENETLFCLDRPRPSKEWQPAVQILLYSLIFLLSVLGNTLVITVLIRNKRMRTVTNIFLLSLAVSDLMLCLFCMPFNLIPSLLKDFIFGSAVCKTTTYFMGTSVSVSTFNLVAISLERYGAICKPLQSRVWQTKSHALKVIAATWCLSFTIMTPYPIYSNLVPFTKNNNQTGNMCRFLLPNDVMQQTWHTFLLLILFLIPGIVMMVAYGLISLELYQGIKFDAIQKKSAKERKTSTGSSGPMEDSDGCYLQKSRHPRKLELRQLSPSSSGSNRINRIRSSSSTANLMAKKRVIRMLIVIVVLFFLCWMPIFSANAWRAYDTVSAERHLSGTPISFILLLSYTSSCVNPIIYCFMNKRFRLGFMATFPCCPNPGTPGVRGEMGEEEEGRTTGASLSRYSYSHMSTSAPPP

Chain of Mu-type opioid receptor (P97266 whole entry): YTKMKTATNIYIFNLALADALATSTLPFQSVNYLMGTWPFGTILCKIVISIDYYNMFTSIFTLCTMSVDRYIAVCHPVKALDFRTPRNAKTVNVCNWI

## CCCC[C@@H](C(=O)N[C@@H](CC(=O)O)C(=O)N[C@@H](Cc1ccccc1)C(N)=O)N(C)C(=O)[C@H](NC(=O)CNC(=O)[C@@H](Cc1ccccc1)NC(=O)[C@H](Cc1ccc(O)cc1)NC(=O)[C@@H](N)CC(=O)O)[C@H](C)c1c[nH]c2ccccc12
[1]
  IC50: > 30 µM
[2]; read-out: IC50
  IC50: 8.6 µM

## CCCC[C@@H](C(=O)N[C@@H](CC(=O)O)C(=O)N[C@@H](Cc1ccccc1)C(N)=O)N(C)C(=O)[C@H](NC(=O)CNC(=O)[C@@H](Cc1ccccc1)NC(=O)[C@H](Cc1ccc(O)cc1)NC(=O)[C@@H](N)CC(=O)O)[C@@H](C)c1c[nH]c2ccccc12
[1]
  IC50: > 30 µM
[2]; read-out: IC50
  IC50: 8.6 µM

## CCCC[C@@H](C(=O)N[C@@H](CC(=O)O)C(=O)N[C@@H](Cc1ccccc1)C(N)=O)N(C)C(=O)[C@@H](NC(=O)CNC(=O)[C@@H](Cc1ccccc1)NC(=O)[C@H](Cc1ccc(O)cc1)NC(=O)[C@@H](N)CC(=O)O)[C@H](C)c1c[nH]c2ccccc12
[1]
  IC50: 3.05 µM
[2]; read-out: IC50
  IC50: 1 µM

## CCCC[C@@H](C(=O)N[C@@H](CC(=O)O)C(=O)N[C@@H](Cc1ccccc1)C(N)=O)N(C)C(=O)[C@@H](NC(=O)CNC(=O)[C@@H](Cc1ccccc1)NC(=O)[C@H](Cc1ccc(O)cc1)NC(=O)[C@@H](N)CC(=O)O)[C@@H](C)c1c[nH]c2ccccc12
[1]
  IC50: 6.8 µM
[2]; read-out: IC50
  IC50: > 1.2 µM

## CCCC[C@@H](C(=O)N[C@@H](CC(=O)O)C(=O)N[C@@H](Cc1ccccc1)C(N)=O)N(C)C(=O)[C@H](Cc1c[nH]c2ccccc12)NC(=O)CNC(=O)[C@@H](Cc1ccccc1)NC(=O)[C@H](Cc1ccc(O)cc1)NC(=O)[C@@H](N)CC(=O)O
[1]
  IC50: 0.7 µM
[2]; read-out: IC50
  IC50: > 12 µM

## CC1(C)SSC(C)(C)[C@H](C(=O)O)NC(=O)C(Cc2ccccc2)NC(=O)CNC(=O)C1NC(=O)[C@@H](N)Cc1ccc(O)cc1 (single isomer, unassigned)
[2]
  IC50: Not Active
